Measured values as given in patent US20100015220A1, “NIACIN AND NSAID COMBINATION THERAPY” (priority 2008, published 2010).
Read-outs that look alike come from different tables or passages of the source.

Columns and labels:
[1] = test system: flushing following niacin dosing; experiment: Example 1 clinical study: anti-flushing effect of aspirin regimen on immediate release niacin; type: in vivo, healthy volunteers; details: 243 mg aspirin per day for four days plus 20 mg/hr from 6 h before to 5 h after immediate release niacin; vs placebo
Source text: Provided is the clinical study to establish an anti-flushing effect of aspirin regimen on immediate release niacin. The primary endpoints for this study were treatment group comparisons of: • incidence, duration and severity of flushing following niacin dosing; • routine monitoring adverse events. Subjects have screening procedures performed up to 4 weeks prior to the first dosing visit. All qualified subjects received two single doses of niacin one week apart. Subjects were randomized to receive either an aspirin regimen or a placebo regimen prior to their niacin dose on day 1 and the opposite regimen prior to their niacin dose on day 8. At randomization, subjects received blinded study medication to be taken in the morning and evening of days −4, −3, −2 and −1. Subjects checked into the clinic on day −1 and remained housed for approximately 24 hours after niacin dosing on day 1. Prior to leaving the clinic, they received blinded study medication to be taken on the morning and evening of days 4, 5, 6, and 7. Subjects returned to the clinic on day 7 and remained housed for approximately 24 hours after niacin dosing on day 8. […] Episodes of flushing (including burning, itching, crawling sensation, pain and/or reddening of the skin, fever-like sensation) were recorded with start and end time and maximum severity captured. […]

[2] = test system: flushing associated with single-dose administration of extended-release niacin (Niaspan); experiment: Example 2 three-way cross-over study: anti-flushing effects of two aspirin regimens versus placebo on extended release niacin; type: in vivo, healthy volunteers; details: for subjects who experienced a flushing response: 2 g extended-release niacin; for subjects who experienced a flushing response / total number of flushing episodes: 46 subjects; for maximum severity of flushing, mean / maximum severity of flushing, median: 100 mm VAS; for total cumulative duration of flushing, mean / total cumulative duration of flushing, median: start of first episode to end of last
Source text: To assess the ability of two aspirin regimens to decrease flushing associated with single-dose administration of extended-release niacin (Niaspan®). […] Study subjects remained housed overnight at the clinical research center following niacin dosing to carefully monitor for flushing reactions and other adverse events. Each subject received all three dosing regimens in a randomized, three-way cross-over fashion. Subjects have screening procedures performed up to 4 weeks prior to Period 1 Day (the first dosing visit), including assessment of flushing response to a 500 mg immediate release niacin (Niacor®) challenge. All qualified subjects received three single doses of extended-release niacin at least one week apart during three treatment periods. Subjects were randomized to receive one of the two aspirin regimens or placebo prior to their niacin dose on Day 1 of each treatment period. At randomization, subjects received blinded study medication to be taken in the evening of days -3 and -2. For each treatment period, subjects checked into the clinic on Day -1 and remained housed for at least 18 hours after niacin dosing on Day 1. Prior to leaving the clinic during treatment periods 1 and 2, subjects received blinded study medication to be taken in the morning and evening of Days -3 and -2 of the next treatment period. End of study procedures was performed on Day 2 of treatment period 3 240 mg […]. for three days prior to niacin dosing plus 30 mg ASA per hour for eight hours, starting 4 hours prior to niacin dosing. 10 mg ASA per hour for 6 hours prior to niacin dosing. This regimen tested whether a lower dose of aspirin without an aspirin lead-in, and given entirely prior to niacin dosing, was sufficient to diminish flushing. No aspirin. This regimen acted as the negative control. Niaspan®, as well as blinded aspirin or placebo, for oral administration during the inpatient portion of each treatment period (Day -1 and Day 1) were dispensed by study pharmacist and administered to the subject by study personnel. Aspirin or placebo were administered in the evening on Day -1 and hourly on Day 1 for 6 hours before, concurrently with, and hourly for 3 hours after the Niaspan® dose. Episodes of flushing (including burning, itching, crawling sensation, pain and/or reddening of the skin, fever-like sensation) were recorded with start and end time maximum severity, and individual symptoms captured. A 100 mm visual analog scale (0=no flushing symptoms; 100=intolerable symptoms) was used to capture severity as reported by the subject. For each subject during each treatment period, the number of episodes of flushing, maximum severity of all episodes of flushing, and total duration of flushing, from start of the first episode to the end of the last episode, was calculated and summarized by treatment regimen. […] A total of 54 subjects were enrolled in the study. Forty-six subjects completed all three dosing periods and have contributed data to the evaluation of flushing parameters. A total of 51 subjects were exposed to Treatment A (240 mg ASA), 50 to B (60 mg ASA), and 50 to C (Placebo); these subjects comprise the population for evaluation of safety parameters.

[3] = Example 2 safety: monitoring of adverse events; type: in vivo, healthy volunteers
Description: Safety was assessed be assessing flushing episodes and by monitoring of other adverse events.
An adverse event (AE) is any unfavorable and unintended sign including an abnormal laboratory finding, symptom, or disease temporally associated with the use of a medical product, whether or not considered related to the study drug. The severity rating was scaled based on the following categories: • mild—awareness of a symptom, but easily tolerated; • moderate—discomfort enough to cause interference with usual activity; • severe—incapacitating with inability to work or perform usual activity.
A total of 54 subjects were enrolled in the study. Forty-six subjects completed all three dosing periods and have contributed data to the evaluation of flushing parameters. A total of 51 subjects were exposed to Treatment A (240 mg ASA), 50 to B (60 mg ASA), and 50 to C (Placebo); these subjects comprise the population for evaluation of safety parameters.

[4] = ASA and salicylic acid plasma pharmacokinetic profiles; type: in vivo; details: for aspirin plasma AUC / salicylic acid plasma AUC: in vivo; for Cmax: plasma, oral
[5] = test system: flushing induced by nicotinic acid; details: guinea pigs; aspirin 50, 100 or 200 mg/kg; cited from earlier work
[6] = test system: flushing induced by nicotinic acid; details: humans; total 975 mg aspirin (650 mg at 1 hr and 325 mg at 0.5 hr prior to high dose nicotinic acid); cited from earlier work
[7] = in vivo; cited from earlier work

CC(=O)Oc1ccccc1C(=O)O [ASA, acetyl salicylic acid]
reduction in mean flush intensity [1]: 53% | reduction in median flush intensity [1]: 77% | episodes of flushing per subject, mean ([2]; 60 mg ASA): 1.4 | subjects who experienced a flushing response ([2]; 60 mg ASA (Treatment B)): 87% | incidence of itching, crawling, reddening and fever-like sensation of the skin ([2]; 60 mg ASA compared to placebo): occurred less frequently | times more likely to have fewer episodes of flushing ([2]; 60 mg ASA compared to placebo (p>0.10)): 1.3 times | total number of flushing episodes ([2]; 60 mg ASA): 64 episodes | maximum severity of flushing, mean ([2]; 60 mg ASA): 36.1 mm | maximum severity of flushing, median ([2]; 60 mg ASA): 35.0 mm | total cumulative duration of flushing, mean ([2]; 60 mg ASA): 101.8 min | total cumulative duration of flushing, median ([2]; 60 mg ASA): 84.0 min | episodes of flushing per subject, mean ([2]; 240 mg ASA): 1.1 | subjects who experienced a flushing response ([2]; 240 mg ASA (Treatment A)): 74% | incidence of individual flushing symptoms ([2]; 240 mg ASA compared to 60 mg ASA or placebo): lower incidence of each flushing symptom | times more likely to have fewer episodes of flushing ([2]; 240 mg ASA compared to 60 mg ASA, multinomial logistic regression (p=0.05)): 1.7 times | times more likely to have fewer episodes of flushing ([2]; 240 mg ASA compared to placebo, multinomial logistic regression (p=0.01)): 2.1 times | total number of flushing episodes ([2]; 240 mg ASA): 52 episodes | maximum severity of flushing, mean ([2]; 240 mg ASA): 25.8 mm | maximum severity of flushing, median ([2]; 240 mg ASA): 20.0 mm | total cumulative duration of flushing, mean ([2]; 240 mg ASA): 67.1 min | total cumulative duration of flushing, median ([2]; 240 mg ASA): 44.5 min | adverse events involving gastrointestinal disorders ([3]; 60 mg ASA): 3 subjects | headache ([3]; 60 mg ASA): 5 subjects | Number of AEs ([3]; 60 mg ASA (n = 50)): 14 | Subjects with AEs Leading to Withdrawal ([3]; 60 mg ASA (n = 50)): 0 (0.0%) subjects (%) | Subjects with Serious AEs ([3]; 60 mg ASA (n = 50)): 0 (0.0%) subjects (%) | Subjects with Severe AEs ([3]; 60 mg ASA (n = 50)): 0 (0.0%) subjects (%) | Subjects with any AE ([3]; 60 mg ASA (n = 50)): 10 (20.0%) subjects (%) | Subjects with any CTM-related AE ([3]; 60 mg ASA (n = 50)): 7 (14.0%) subjects (%) | adverse events involving gastrointestinal disorders ([3]; 240 mg ASA): 4 subjects | headache ([3]; 240 mg ASA): 4 subjects | Number of AEs ([3]; 240 mg ASA (n = 51)): 14 | Subjects with AEs Leading to Withdrawal ([3]; 240 mg ASA (n = 51)): 0 (0.0%) subjects (%) | Subjects with Serious AEs ([3]; 240 mg ASA (n = 51)): 0 (0.0%) subjects (%) | Subjects with Severe AEs ([3]; 240 mg ASA (n = 51)): 0 (0.0%) subjects (%) | Subjects with any AE ([3]; 240 mg ASA (n = 51)): 12 (23.5%) subjects (%) | Subjects with any CTM-related AE ([3]; 240 mg ASA (n = 51)): 7 (13.7%) subjects (%) | aspirin plasma AUC ([4]; 160 mg): ~800 ngml^−1h | salicylic acid plasma AUC ([4]; 160 mg): ~11000 ngml^−1h | aspirin plasma AUC ([4]; 240 mg): ~1200 ngml^−1h | salicylic acid plasma AUC ([4]; 240 mg): ~16300 ngml^−1h | aspirin plasma AUC ([4]; 324 mg): ~1600 ngml^−1h | salicylic acid plasma AUC ([4]; 324 mg): ~22000 ngml^−1h | flushing induced by nicotinic acid [5]: reduce the flushing induced by nicotinic acid | flushing induced by nicotinic acid [6]: reduce the flushing induced by nicotinic acid

O=C(O)c1cccnc1 [Niacin, nicotinic acid]
reduces Lp(a) levels [7]: about 40%

O=C(O)c1ccccc1O [salicylic acid]
Cmax ([4]; 160 mg, fast release rate): ~2600 ng/mL | Cmax ([4]; 160 mg, intermediate release rate): ~1700 ng/mL | Cmax ([4]; 160 mg, slow release rate): ~1200 ng/mL | Cmax ([4]; 240 mg, fast release rate): ~3700 ng/mL | Cmax ([4]; 240 mg, intermediate release rate): ~2600 ng/mL | Cmax ([4]; 240 mg, slow release rate): ~1800 ng/mL | Cmax ([4]; 324 mg, fast release rate): ~5000 ng/mL | Cmax ([4]; 324 mg, intermediate release rate): ~3500 ng/mL | Cmax ([4]; 324 mg, slow release rate): ~2400 ng/mL
